Test results reported in US8895805B2, “Method for modifying insect resistance of plants by utilizing RNAi technique” (Shanghai Institutes for Biological Sciences, Chinese …, priority 2006, dated 2014).

System: GST1 gene
Assay: GST1 gene expression in the mesenteron after artificial diet containing gossypol
Format: in vivo, cotton bollworm
Conditions: 5-day old larvae, 1 day, artificial diet with 1 mg/g gossypol (FIG. 7A)
Method: FIG. 7A show the change in GST 1 gene expression in the mesenteron of 5-day old cotton bollworm with the same growth vigor 1 day after eating artificial diet containing 1 mg/g gossypol. Lane 1 and 2 are cotton bollworm eating artificial diet with or without 1 mg/g gossypol respectively.

## Cc1cc2c(C(C)C)c(O)c(O)c(C=O)c2c(O)c1-c1c(C)cc2c(C(C)C)c(O)c(O)c(C=O)c2c1O [gossypol]
  GST1 gene expression in the mesenteron: no significant effect
